CC1(C)C2CCC1(CS(=O)(=O)O)C(=O)C2 (stereo not drawn)
solubility (mole fraction)
Conditions | in acetyl acetate | in methyl acetate
305.7 K | 0.099 | 0.0236
310.6 K | 0.122 | 0.0278
313.7 K | – | 0.0316
315.1 K | 0.134 | 0.0339
317.4 K | 0.15 | –
320.1 K | – | 0.0409
321.4 K | 0.161 | 0.039
324.9 K | 0.173 | 0.0459
328.9 K | 0.179 | –
329.1 K | – | 0.0546
331.7 K | 0.181 | –
334.6 K | – | 0.0726
339.1 K | – | 0.0906

Reference: BigSolDB 2.1
